Data published in the supplement of paper PMC10307832.

Tests used:
Assay in all cases: relative viability (nuclei count vs DMSO), 5 days (fraction); higher = more cells survive
[1] = compound: CCn1c(-c2nonc2N)nc2c(C#CC(C)(C)O)ncc(OC[C@H]3CCCNC3)c21 + Cc1nc(NC(=O)N2CCC[C@H]2C(N)=O)sc1-c1ccnc(C(C)(C)C(F)(F)F)c1 [Alpelisib] (partner 2 µM)
Method in brief: (§1)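 Each reported value is a median over duplicate plates. It expresses relative viability: treated-well nuclei count divided by vehicle-well nuclei count. Lung cancer cell lines in 1536-well plates were dosed by pin tool a day after seeding, alone with one drug or with a fixed anchor-drug dose plus five library-drug doses (not always all listed) in √10 steps, and nuclei were counted after 5 days.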

[2] = compound: CCn1c(-c2nonc2N)nc2c(C#CC(C)(C)O)ncc(OC[C@H]3CCCNC3)c21 + O=C(CCCCCCC(=O)Nc1ccccc1)NO [Vorinostat] (partner 1 µM)
Method in brief: as §1

BAM7 + Dasatinib = compound: CCOC1=CC=CC=C1N=NC2=C(NN(C2=O)C3=NC(=CS3)C4=CC=CC=C4)C [BAM7] + Cc1nc(Nc2ncc(C(=O)Nc3c(C)cccc3Cl)s2)cc(N2CCN(CCO)CC2)n1 [Dasatinib] (partner 0.075 µM)
Method in brief: as §1

[3] = compound: CCn1c(-c2nonc2N)nc2c(C#CC(C)(C)O)ncc(OC[C@H]3CCCNC3)c21 + COc1cccc2cc(-c3nc([C@H]4CC[C@H](C(=O)O)CC4)n4ncnc(N)c34)[nH]c12 [OSI-027] (partner 0.5 µM)
Method in brief: as §1

| Cell Line | relative viability ([1]; first compound 0.01 µM) | relative viability ([1]; first compound 0.03162 µM) | relative viability ([1]; first compound 0.1 µM) | relative viability ([1]; first compound 0.3162 µM) | relative viability ([1]; first compound 1 µM) | relative viability ([2]; first compound 0.01 µM) | relative viability ([2]; first compound 0.1 µM) | relative viability ([2]; first compound 0.3162 µM) | relative viability ([2]; first compound 1 µM) | relative viability (BAM7 + Dasatinib; first compound 0.5 µM) | relative viability (BAM7 + Dasatinib; first compound 5 µM) | relative viability (BAM7 + Dasatinib; first compound 15.81 µM) | relative viability (BAM7 + Dasatinib; first compound 50 µM) | relative viability ([3]; first compound 0.01 µM) | relative viability ([3]; first compound 0.03162 µM) | relative viability ([3]; first compound 0.1 µM) | relative viability ([3]; first compound 0.3162 µM) | relative viability ([3]; first compound 1 µM) | relative viability ([2]; first compound 0.03162 µM) |
| --- | --- | --- | --- | --- | --- | --- | --- | --- | --- | --- | --- | --- | --- | --- | --- | --- | --- | --- | --- |
| NCI-H2087 | 0.917 | 1.2 | 1.13 | 1.02 | 0.927 | 0.971 | 0.706 | 0.517 | 0.96 | 0.939 | 0.991 | 0.765 | 0.844 | 0.479 | 0.522 | 0.652 | 0.477 | 0.467 | – |
| NCI-H1437 | 0.895 | 0.964 | 0.965 | 0.778 | 0.902 | 0.812 | 0.955 | 0.791 | 0.952 | 0.561 | 0.574 | 0.445 | 0.833 | 0.815 | 0.951 | 0.885 | 0.758 | 0.897 | 0.794 |
| NCI-H650 | 1.1 | 1.21 | 1.02 | 1.04 | 1.24 | 0.435 | 0.393 | 0.423 | 0.396 | 0.422 | 0.49 | 0.477 | 0.517 | 0.412 | 0.39 | 0.495 | 0.463 | 0.441 | 0.384 |
| COR-L23 | 0.695 | 0.866 | 0.671 | 0.663 | 0.7 | 0.433 | 0.437 | 0.368 | 0.387 | 0.476 | 0.481 | 0.385 | 0.502 | 0.839 | 0.698 | 0.687 | 0.478 | 0.384 | 0.558 |
| COR-L 105 | 1.05 | 0.962 | 0.871 | 0.703 | 0.808 | 0.913 | 0.915 | 0.724 | 0.707 | 0.308 | 0.407 | 0.455 | 0.501 | 0.664 | 0.802 | 0.59 | 0.52 | 0.499 | 0.804 |
| LK-2 | 1.24 | 1.27 | 0.984 | 0.916 | 1.01 | 0.239 | 0.289 | 0.316 | 0.321 | 0.242 | 0.299 | 0.255 | 0.447 | 0.199 | 0.212 | 0.179 | 0.218 | 0.173 | 0.291 |
| 201T | 0.989 | 0.992 | 0.99 | 0.978 | 1.02 | 0.952 | 0.919 | 0.894 | 0.958 | 0.659 | 0.56 | 0.461 | 0.497 | 0.675 | 0.644 | 0.625 | 0.719 | 0.754 | 0.995 |
| NCI-H596 | 0.365 | 0.522 | 0.482 | 0.487 | 0.503 | 0.569 | 0.553 | 0.58 | 0.633 | 0.621 | 0.644 | 0.578 | 0.632 | 0.618 | 0.789 | 0.663 | 0.668 | 0.645 | – |
| H3255 | 0.659 | 0.705 | 0.692 | 0.562 | 0.607 | 0.832 | 0.815 | 0.693 | 0.448 | 0.397 | 0.34 | 0.483 | 0.788 | 0.683 | 0.658 | 0.607 | 0.539 | 0.528 | 0.704 |
| NCI-H647 | 1.2 | 1.17 | 1.02 | 1.03 | 1.23 | 0.616 | 0.603 | 0.358 | 0.587 | 0.175 | 0.193 | 0.203 | 0.248 | 0.579 | 0.652 | 0.615 | 0.419 | 0.687 | 0.491 |
| NCI-H2023 | 0.636 | 0.625 | 0.539 | 0.504 | 0.559 | 0.615 | 0.58 | 0.394 | 0.488 | 0.519 | 0.465 | 0.393 | 0.481 | 0.369 | 0.411 | 0.307 | 0.202 | 0.195 | 0.642 |
| NCI-H23 | 0.605 | 0.717 | 0.686 | 0.528 | 0.588 | 0.559 | 0.626 | 0.558 | 0.531 | 0.892 | 0.813 | 0.732 | 0.868 | 0.679 | 0.612 | 0.606 | 0.638 | 0.597 | 0.591 |
| NCI-H1944 | 0.886 | 0.759 | 0.844 | 0.804 | 0.777 | 0.645 | 0.568 | 0.514 | 0.585 | 0.217 | 0.234 | 0.225 | 0.279 | 0.367 | 0.403 | 0.434 | 0.37 | 0.401 | 0.477 |
| NCI-H1793 | 0.815 | 0.812 | 0.508 | 0.592 | 0.64 | 0.652 | – | 0.605 | 0.704 | 0.375 | 0.424 | 0.431 | 0.388 | 0.279 | 0.29 | 0.232 | 0.251 | 0.252 | 0.692 |
| NCI-H520 | 1.01 | 0.883 | 0.605 | 0.851 | 0.547 | 0.706 | 0.585 | 0.543 | 0.5 | 0.184 | 0.171 | 0.207 | 0.245 | 0.221 | 0.266 | 0.208 | 0.183 | 0.173 | 0.711 |
| NCI-H460 | 0.439 | 0.496 | 0.477 | 0.447 | 0.437 | 0.722 | 0.757 | 0.64 | 0.767 | 0.51 | 0.622 | 0.443 | 0.691 | 0.579 | 0.784 | 0.588 | 0.535 | 0.548 | 0.857 |
| EKVX | 0.937 | 0.943 | 0.862 | 0.842 | 0.919 | 0.705 | 0.689 | 0.726 | 0.807 | 0.604 | 0.586 | 0.31 | 0.41 | 0.685 | 0.671 | 0.678 | 0.686 | 0.752 | 0.765 |
